Measurements reported in PMC8249783, “A novel multikinase inhibitor SKLB‐YTH‐60 ameliorates inflammation and fibrosis in bleomycin‐induced lung fibrosis mouse models” (Cell Proliferation, 2021).
Values after ≈ are worked out from the molar mass of the structure shown. Where two headings read alike, the source gives them in different places.

Legend:
phosphorylation of FGFR1 = experiment: Western blot of FGFR signalling in fibroblasts; type: cell-based; conditions: 10 μmol·L^−1
Procedure: Samples of cells and mouse lung tissues were lysed in RIPA buffer with a protease and phosphatase inhibitors (Selleckchem). The protein concentrations in the cell lysate were measured by the Lowry method. Approximately 50 μg of total protein was separated by SDS‐PAGE and then transferred to polyvinylidene fluoride (PVDF) membranes (Amersham Bioscience). After the membranes incubation with the specific primary and secondary antibodies, the reactive bands were detected with enhanced chemiluminescent substrate to horseradish peroxidase.

[1] = tested on: Human pulmonary fibroblasts (HPF); experiment: Cell viability assay (CCK8); type: cell-based; conditions: 24‐72 hours
Procedure: (§1) The cell viability of YTH‐60 and Nintedanib treatment was performed by MTT and CCK8 assay. Briefly, the exponentially growing cells were seeded in 96‐well (2‐5 × 10^3 cells·well^−1) and cultured for 24 hours. The cells were treated with different concentrations of YTH‐60 (0, 0.625, 1.25, 2.5, 5, 10 µmol·L^−1), after treatment for 24, 48 and 72 hours, respectively, a volume of 20 μL of 5 mg·mL^−1 MTT solution or 10 μL CCK‐8 solution was added to each well and incubation for 2‐4 hours at 37°C. Finally, the 96‐well plates were read on Multiskan FC microplate spectrophotometer at 570 or 450 nm wavelength.

[2] = tested on: NIH‐3T3 (mouse embryonic fibroblast); experiment: Cell viability assay (CCK8); type: cell-based; conditions: NIH‐3T3, 24‐72 hours
Procedure: as §1

[3] = tested on: MRC‐5 human embryo lung fibroblast; experiment: Cell viability assay (CCK8); type: cell-based; conditions: MRC‐5, 24‐72 hours
Procedure: as §1

[4] = tested on: α‐SMA, collagen I and TGF‐β1 mRNA in NIH‐3T3 cells; experiment: Real‐time qPCR of fibrosis markers in TGF‐β1‐treated fibroblasts; type: cell-based, mouse; conditions: NIH‐3T3, TGF‐β1 and 2.5 μmol·L^−1 for 24 hours
Procedure: Total RNA of lung tissues or cells was extracted by using AxyPrep Multisource Total RNA Miniprep Kit (Axygen). Reverse transcription was carried out with Evo M‐MLV RT Kit with gDNA Clean (Accurate, AG11711). qRTPCR was conducted using SYBR Green Pro Taq HS (Accurate, AG11701).

A549 cells = experiment: Cell viability assay (MTT); type: cell-based, human
Procedure: as §1

Flt4 (h)/VEGFR3 = Flt4 (h)/VEGFR3 (Homo sapiens, UniProt P35916); experiment: Kinase profile assay and IC50 test (Eurofins); type: biochemical; conditions: double testing
Procedure: (§2) The in vitro kinase enzymatic inhibition assays were carried out by the Kinase Profiling Services provided by Eurofins (UK). The detailed protocol descriptions can be provided by the website (https://www.eurofinsdiscoveryservices.com).

Abl (h) = Abl (h) (Homo sapiens, UniProt P00519); experiment: Kinase profile assay and IC50 test (Eurofins); type: biochemical; conditions: double testing
Procedure: as §2

FGFR3 (h) = FGFR3 (h) (Homo sapiens, UniProt P22607); experiment: Kinase profile assay and IC50 test (Eurofins); type: biochemical; conditions: double testing
Procedure: as §2

Flt3 (h) = Flt3 (h) (Homo sapiens, UniProt P36888); experiment: Kinase profile assay and IC50 test (Eurofins); type: biochemical; conditions: double testing
Procedure: as §2

PDGFRα (h) = PDGFRα (h) (Homo sapiens, UniProt P16234); experiment: Kinase profile assay and IC50 test (Eurofins); type: biochemical
Procedure: as §2

Flt1 (h)/VEGFR1 = Flt1 (h)/VEGFR1 (Homo sapiens, UniProt P17948); experiment: Kinase profile assay and IC50 test (Eurofins); type: biochemical; conditions: double testing
Procedure: as §2

PDGFRβ (h) = PDGFRβ (h) (Homo sapiens, UniProt P09619); experiment: Kinase profile assay and IC50 test (Eurofins); type: biochemical
Procedure: as §2

FGFR4 (h) = FGFR4 (h) (Homo sapiens, UniProt P22455); experiment: Kinase profile assay and IC50 test (Eurofins); type: biochemical; conditions: double testing
Procedure: as §2

FGFR1 (h) = FGFR1 (h) (Homo sapiens, UniProt P11362); experiment: Kinase profile assay and IC50 test (Eurofins); type: biochemical; conditions: double testing
Procedure: as §2

Src (1‐530) (h) = target: T1, Src (1‐530) (h) (Homo sapiens, UniProt P12931); experiment: Kinase profile assay and IC50 test (Eurofins); type: biochemical; conditions: double testing
T1 construct: Src (1‐530) (h)
Procedure: as §2

FGFR2 (h) = FGFR2 (h) (Homo sapiens, UniProt P21802); experiment: Kinase profile assay and IC50 test (Eurofins); type: biochemical; conditions: double testing
Procedure: as §2

KDR (h)/VEGFR2 = KDR (h)/VEGFR2 (Homo sapiens, UniProt P35968); experiment: Kinase profile assay and IC50 test (Eurofins); type: biochemical; conditions: double testing
Procedure: as §2

[5] = Determination of thermodynamic solubility; type: physicochemical; conditions: for solubility at 5 min: thermodynamic from solid, double testing
Procedure: Weigh about 1 mg of the test compound into 1.5 mL centrifuge tube and add 0.5 mL various solvents, sonicating for 5 minutes (if the compound is completely dissolved, then added again test compound until a little solid remains). Take the supernatant after centrifugation, diluting to a suitable concentration using and measuring absorbance values by UV spectrophotometer. Weigh 10 mg compound accurately of the test compound into 1.5 mL centrifuge tube and add 1.2 mL methanol solution to prepare 8.3 mg·mL^−1 mother solution. Take the above described mother liquor to prepare the solution in concentrations of 8.3, 4.2, 2.1, 1.0, 0.52, 0.26 mg·mL^−1 then measure absorbance value. With concentration c (mg·mL^−1) as the abscissa, absorbance A as the ordinate, mapping and fitting line to get the standard curve (The correlation coefficient should be greater than 0.998). Calculate solubility according to the standard curve of the linear equation.

PDGFRβ (h), sequence (P09619 33-1106): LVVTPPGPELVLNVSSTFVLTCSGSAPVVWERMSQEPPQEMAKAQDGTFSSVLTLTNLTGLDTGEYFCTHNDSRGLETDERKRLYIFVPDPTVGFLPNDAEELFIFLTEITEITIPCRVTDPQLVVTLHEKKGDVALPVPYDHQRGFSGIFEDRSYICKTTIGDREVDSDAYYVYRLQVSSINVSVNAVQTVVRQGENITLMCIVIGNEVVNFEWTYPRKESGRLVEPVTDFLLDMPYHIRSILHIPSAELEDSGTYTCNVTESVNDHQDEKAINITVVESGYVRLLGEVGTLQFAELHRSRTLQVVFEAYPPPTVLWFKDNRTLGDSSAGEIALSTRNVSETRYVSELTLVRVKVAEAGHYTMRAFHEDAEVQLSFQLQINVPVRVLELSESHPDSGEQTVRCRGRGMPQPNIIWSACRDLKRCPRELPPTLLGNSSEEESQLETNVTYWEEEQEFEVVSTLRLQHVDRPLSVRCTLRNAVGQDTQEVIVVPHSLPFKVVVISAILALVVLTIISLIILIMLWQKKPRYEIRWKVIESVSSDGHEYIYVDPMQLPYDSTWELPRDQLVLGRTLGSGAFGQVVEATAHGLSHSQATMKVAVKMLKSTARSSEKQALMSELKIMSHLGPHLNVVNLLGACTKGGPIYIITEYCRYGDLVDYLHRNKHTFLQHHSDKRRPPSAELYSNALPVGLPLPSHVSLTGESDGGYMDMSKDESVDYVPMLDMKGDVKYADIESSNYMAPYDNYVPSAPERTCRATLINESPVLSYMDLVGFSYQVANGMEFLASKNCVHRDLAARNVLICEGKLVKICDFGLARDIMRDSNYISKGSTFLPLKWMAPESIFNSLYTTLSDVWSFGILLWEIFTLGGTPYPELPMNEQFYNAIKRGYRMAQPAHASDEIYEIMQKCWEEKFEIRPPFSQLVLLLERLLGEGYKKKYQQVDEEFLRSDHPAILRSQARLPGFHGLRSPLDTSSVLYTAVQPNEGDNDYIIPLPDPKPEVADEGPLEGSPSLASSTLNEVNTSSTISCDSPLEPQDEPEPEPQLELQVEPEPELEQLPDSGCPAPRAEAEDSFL
PDGFRα (h), sequence (P16234 24-1089): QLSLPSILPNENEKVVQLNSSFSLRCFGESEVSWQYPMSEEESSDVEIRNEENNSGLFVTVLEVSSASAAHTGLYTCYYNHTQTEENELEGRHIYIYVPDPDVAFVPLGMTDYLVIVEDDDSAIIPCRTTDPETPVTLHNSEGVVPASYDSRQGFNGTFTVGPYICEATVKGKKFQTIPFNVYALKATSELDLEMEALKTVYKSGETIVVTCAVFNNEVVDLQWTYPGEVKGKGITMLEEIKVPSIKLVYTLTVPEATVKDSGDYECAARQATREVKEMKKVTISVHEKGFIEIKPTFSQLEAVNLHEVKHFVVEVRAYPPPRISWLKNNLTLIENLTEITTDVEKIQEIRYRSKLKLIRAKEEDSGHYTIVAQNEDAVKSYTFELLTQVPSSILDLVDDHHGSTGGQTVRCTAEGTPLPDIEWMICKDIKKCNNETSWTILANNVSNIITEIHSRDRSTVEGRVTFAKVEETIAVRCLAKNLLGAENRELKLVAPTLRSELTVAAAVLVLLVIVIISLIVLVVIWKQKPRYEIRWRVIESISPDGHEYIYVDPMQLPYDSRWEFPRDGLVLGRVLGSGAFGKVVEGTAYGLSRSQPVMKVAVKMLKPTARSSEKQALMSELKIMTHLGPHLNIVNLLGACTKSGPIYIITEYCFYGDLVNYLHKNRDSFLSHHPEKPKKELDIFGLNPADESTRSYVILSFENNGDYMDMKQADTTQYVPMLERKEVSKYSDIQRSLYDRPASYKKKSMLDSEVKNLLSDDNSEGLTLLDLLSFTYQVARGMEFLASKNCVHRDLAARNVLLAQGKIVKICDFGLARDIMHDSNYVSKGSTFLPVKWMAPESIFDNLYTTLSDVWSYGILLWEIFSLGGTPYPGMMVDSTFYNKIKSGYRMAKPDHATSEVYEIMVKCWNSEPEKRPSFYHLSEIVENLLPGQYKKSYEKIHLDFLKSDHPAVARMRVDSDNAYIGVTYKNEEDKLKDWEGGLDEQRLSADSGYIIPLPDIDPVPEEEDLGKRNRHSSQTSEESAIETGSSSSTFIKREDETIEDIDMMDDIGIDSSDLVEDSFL
Abl (h), sequence (P00519 whole entry): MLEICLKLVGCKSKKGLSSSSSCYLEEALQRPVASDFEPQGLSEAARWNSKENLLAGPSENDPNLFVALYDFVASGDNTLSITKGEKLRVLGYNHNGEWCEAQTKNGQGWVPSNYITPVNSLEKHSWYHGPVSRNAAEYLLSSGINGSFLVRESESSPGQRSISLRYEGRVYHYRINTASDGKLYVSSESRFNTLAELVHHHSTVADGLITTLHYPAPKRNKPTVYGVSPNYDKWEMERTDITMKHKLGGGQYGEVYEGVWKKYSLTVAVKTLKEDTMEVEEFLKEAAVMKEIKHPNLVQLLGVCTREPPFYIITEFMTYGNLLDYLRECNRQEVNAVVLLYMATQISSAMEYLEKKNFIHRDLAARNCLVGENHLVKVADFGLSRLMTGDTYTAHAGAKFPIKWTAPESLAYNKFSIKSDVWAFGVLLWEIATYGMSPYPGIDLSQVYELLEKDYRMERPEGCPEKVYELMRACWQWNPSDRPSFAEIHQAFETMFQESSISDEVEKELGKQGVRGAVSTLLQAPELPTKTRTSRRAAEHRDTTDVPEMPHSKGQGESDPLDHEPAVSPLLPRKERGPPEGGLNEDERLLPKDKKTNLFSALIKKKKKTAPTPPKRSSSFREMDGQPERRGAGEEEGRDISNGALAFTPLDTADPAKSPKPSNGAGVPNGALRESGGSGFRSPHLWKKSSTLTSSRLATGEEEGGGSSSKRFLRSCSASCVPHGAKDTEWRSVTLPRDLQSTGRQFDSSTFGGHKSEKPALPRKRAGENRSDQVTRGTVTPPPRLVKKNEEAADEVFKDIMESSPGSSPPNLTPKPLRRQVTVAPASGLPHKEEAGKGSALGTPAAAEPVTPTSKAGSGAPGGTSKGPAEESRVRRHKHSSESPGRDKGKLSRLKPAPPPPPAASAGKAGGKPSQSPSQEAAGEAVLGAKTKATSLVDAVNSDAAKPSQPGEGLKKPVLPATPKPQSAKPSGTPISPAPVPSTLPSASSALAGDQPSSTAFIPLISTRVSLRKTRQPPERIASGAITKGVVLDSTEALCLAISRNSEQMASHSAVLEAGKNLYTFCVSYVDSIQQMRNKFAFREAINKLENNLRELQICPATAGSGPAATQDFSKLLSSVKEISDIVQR
Flt4 (h)/VEGFR3, sequence (P35916 25-1363): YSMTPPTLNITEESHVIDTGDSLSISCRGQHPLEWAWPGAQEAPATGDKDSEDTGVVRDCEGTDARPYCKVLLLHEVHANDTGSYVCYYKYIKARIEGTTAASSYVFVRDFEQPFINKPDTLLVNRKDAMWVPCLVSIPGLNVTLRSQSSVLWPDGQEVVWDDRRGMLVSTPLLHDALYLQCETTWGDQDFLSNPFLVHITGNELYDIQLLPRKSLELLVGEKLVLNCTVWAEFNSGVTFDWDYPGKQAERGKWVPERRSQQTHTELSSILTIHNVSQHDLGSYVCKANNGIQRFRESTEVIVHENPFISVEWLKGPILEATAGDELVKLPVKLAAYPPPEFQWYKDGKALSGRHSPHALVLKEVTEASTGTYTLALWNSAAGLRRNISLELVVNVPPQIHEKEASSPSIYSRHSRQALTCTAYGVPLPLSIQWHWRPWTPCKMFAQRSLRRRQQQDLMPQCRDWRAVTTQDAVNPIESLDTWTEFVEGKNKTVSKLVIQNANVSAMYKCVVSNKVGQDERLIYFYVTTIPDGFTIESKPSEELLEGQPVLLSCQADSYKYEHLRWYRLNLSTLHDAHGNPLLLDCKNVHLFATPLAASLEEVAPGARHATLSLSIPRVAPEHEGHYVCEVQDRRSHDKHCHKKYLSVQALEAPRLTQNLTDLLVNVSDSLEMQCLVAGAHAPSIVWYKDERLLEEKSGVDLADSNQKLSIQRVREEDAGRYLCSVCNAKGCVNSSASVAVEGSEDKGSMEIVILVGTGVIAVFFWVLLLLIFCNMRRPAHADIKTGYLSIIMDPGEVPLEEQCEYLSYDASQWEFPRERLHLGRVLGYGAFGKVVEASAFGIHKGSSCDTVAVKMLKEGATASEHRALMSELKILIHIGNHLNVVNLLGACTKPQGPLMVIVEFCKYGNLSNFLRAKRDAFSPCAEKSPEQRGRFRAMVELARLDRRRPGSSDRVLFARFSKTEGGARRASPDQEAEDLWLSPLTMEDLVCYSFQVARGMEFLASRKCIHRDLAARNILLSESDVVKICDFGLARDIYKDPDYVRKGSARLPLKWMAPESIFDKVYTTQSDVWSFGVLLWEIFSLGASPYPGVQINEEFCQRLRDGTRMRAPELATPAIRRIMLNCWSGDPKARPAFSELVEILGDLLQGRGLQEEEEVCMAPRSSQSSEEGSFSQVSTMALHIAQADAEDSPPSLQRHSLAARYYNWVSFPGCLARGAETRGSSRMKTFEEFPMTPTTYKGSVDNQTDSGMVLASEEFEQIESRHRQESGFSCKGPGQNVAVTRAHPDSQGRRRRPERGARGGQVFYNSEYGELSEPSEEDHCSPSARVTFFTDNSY

COc1cc(OC)c(Cl)c(-c2ccc3c(/C=C/c4ccc(N(C)C(=O)CN5CCN(C)CC5)cc4)n[nH]c3c2)c1Cl [YTH‐60, (E)‐N‐(4‐(2‐(6‐(2,6‐dichloro‐3,5‐dimethoxyphenyl)‐1H‐indazol‐3‐yl)vinyl)phenyl)‐N‐methyl‐2‐(4‐methylpiperazin‐1‐yl)acetamide]
phosphorylation of FGFR1 (in words) (phosphorylation of FGFR1): inhibited the phosphorylation of FGFR1 | cell proliferation / viability (in words) [1]: inhibits cell proliferation in a time‐ and concentration‐dependent manner | cell proliferation / viability (in words) [2]: inhibits cell proliferation in a time‐ and concentration‐dependent manner | cell proliferation / viability (in words) [3]: inhibits cell proliferation in a time‐ and concentration‐dependent manner | mRNA levels of α‐SMA, collagen I and TGF‐β1 (in words) [4]: reduced this effect | viability of A549 cells (in words) (A549 cells): suppressed the viability of A549 cells | IC50 (Flt4 (h)/VEGFR3): 64 nM | IC50 (Abl (h)): 27 nM | IC50 (FGFR3 (h)): 9 nM | IC50 (Flt3 (h)): 297 nM | kinase inhibition (in words) (PDGFRα (h)): relatively weak kinase inhibition | IC50 (PDGFRα (h); double testing): 921 nM | IC50 (Flt1 (h)/VEGFR1): 123 nM | kinase inhibition (in words) (PDGFRβ (h)): relatively weak kinase inhibition | IC50 (PDGFRβ (h); double testing): > 3000 nM | IC50 (FGFR4 (h)): 424 nM | IC50 (FGFR1 (h)): 4 nM | IC50 (Src (1‐530) (h)): 633 nM | IC50 (FGFR2 (h)): 7 nM | IC50 (KDR (h)/VEGFR2): 61 nM | solubility compared with Nintedanib (in words) [5]: better solubility than Nintedanib | solubility at 5 min ([5]; organic solvent or mixture, Acetone, read-out: Solubility, Acetone): 83.1 ± 0.89 mg/mL (≈ 140 mM) | solubility at 5 min ([5]; organic solvent or mixture, Acetonitrile, read-out: Solubility, Acetonitrile): 18.3 ± 1.2 mg/mL (≈ 30.8 mM) | solubility at 5 min ([5]; organic solvent or mixture, Ethyl acetate, read-out: Solubility, Ethyl acetate): 101 ± 4.02 mg/mL (≈ 170 mM) | solubility at 5 min ([5]; organic solvent or mixture, Ethyl alcohol, read-out: Solubility, Ethyl alcohol): 77 ± 1.53 mg/mL (≈ 130 mM) | solubility at 5 min ([5]; saline or isotonic, Normal saline, read-out: Solubility, Normal saline): 12.7 ± 0.15 mg/mL (≈ 21.4 mM) | solubility at 5 min ([5]; Water, read-out: Solubility, Water): 1.71 ± 0.14 mg/mL (≈ 2.88 mM)
